From ChEMBL document CHEMBL1782045, “Discovery, synthesis, and investigation of the antitumor activity of novel piperazinylpyrimidine derivatives” (Eur J Med Chem, 2011)

How the values were obtained:
[1] = tested on: BT-549; experiment: Cytotoxicity against human BT549 cells after 48 hrs by sulforhodamine B assay; type: cell-based; settings: bt-549, 48 h
[2] = tested on: SK-OV-3; experiment: Cytotoxicity against human SKOV3 cells after 48 hrs by sulforhodamine B assay; type: cell-based; settings: sk-ov-3, 48 h
[3] = tested on: NCI-H460; experiment: Growth inhibition of human NCI-H460 cells after 48 hrs by sulforhodamine B assay; type: functional; settings: NCI-H460, 48 h
[4] = tested on: Platelet-derived growth factor receptor alpha (Homo sapiens), P16234 [V561D]; experiment: Inhibition of human PDGFRA V561D using gamma-33P-ATP as substrate assessed as enzyme functional activity at 1 uM by scintillation counting relative to untreated control; parameters: scale not given: the % may be the effect or the level left
[5] = tested on: HL-60(TB); experiment: Cytotoxicity against human HL-60(TB) cells after 48 hrs by sulforhodamine B assay; type: cell-based
[6] = tested on: OVCAR-3; experiment: Growth inhibition of human OVCAR3 cells after 48 hrs by sulforhodamine B assay; type: functional; settings: OVCAR-3, 48 h
[7] = tested on: RPMI-8226; experiment: Cytotoxicity against human RPMI8226 cells after 48 hrs by sulforhodamine B assay; type: cell-based; settings: rpmi-8226, 48 h
[8] = biological target: Epithelial discoidin domain-containing receptor 1 (Homo sapiens) (UniProt Q08345); experiment: Binding affinity to human DDR1 at 10 uM incubated for 1 hr by kinase binding assay relative to untreated control
[9] = tested on: HCT-116; experiment: Cytotoxicity against human HCT116 cells after 48 hrs by sulforhodamine B assay; type: cell-based; settings: hct-116, 48 h
[10] = tested on: MCF7; experiment: Cytotoxicity against human MCF7 cells after 48 hrs by sulforhodamine B assay; type: cell-based; settings: mcf7, 48 h
[11] = tested on: NCI-H522; experiment: Growth inhibition of human NCI-H522 cells after 48 hrs by sulforhodamine B assay; type: functional; settings: NCI-H522, 48 h
[12] = tested on: COLO 205; experiment: Cytotoxicity against human COLO205 cells after 48 hrs by sulforhodamine B assay; type: cell-based; settings: colo 205, 48 h
[13] = tested on: SW-620; experiment: Growth inhibition of human SW620 cells after 48 hrs by sulforhodamine B assay; type: functional; settings: SW-620, 48 h
[14] = biological target: Hepatocyte growth factor receptor (Homo sapiens, UniProt P08581); experiment: Inhibition of human MET using gamma-33P-ATP as substrate assessed as enzyme functional activity at 1 uM by scintillation counting relative to untreated control; parameters: scale not given: the % may be the effect or the level left
[15] = biological target: Casein kinase I isoform gamma-3 (Homo sapiens) (UniProt Q9Y6M4); experiment: Binding affinity to human CSNK1G3 at 10 uM incubated for 1 hr by kinase binding assay relative to untreated control
[16] = tested on: T1, Receptor-type tyrosine-protein kinase FLT3 (Homo sapiens), P36888 [D835H]; experiment: Binding affinity to human FLT3 D835H mutant at 10 uM incubated for 1 hr by kinase binding assay relative to untreated control
T1 sequence (whole entry): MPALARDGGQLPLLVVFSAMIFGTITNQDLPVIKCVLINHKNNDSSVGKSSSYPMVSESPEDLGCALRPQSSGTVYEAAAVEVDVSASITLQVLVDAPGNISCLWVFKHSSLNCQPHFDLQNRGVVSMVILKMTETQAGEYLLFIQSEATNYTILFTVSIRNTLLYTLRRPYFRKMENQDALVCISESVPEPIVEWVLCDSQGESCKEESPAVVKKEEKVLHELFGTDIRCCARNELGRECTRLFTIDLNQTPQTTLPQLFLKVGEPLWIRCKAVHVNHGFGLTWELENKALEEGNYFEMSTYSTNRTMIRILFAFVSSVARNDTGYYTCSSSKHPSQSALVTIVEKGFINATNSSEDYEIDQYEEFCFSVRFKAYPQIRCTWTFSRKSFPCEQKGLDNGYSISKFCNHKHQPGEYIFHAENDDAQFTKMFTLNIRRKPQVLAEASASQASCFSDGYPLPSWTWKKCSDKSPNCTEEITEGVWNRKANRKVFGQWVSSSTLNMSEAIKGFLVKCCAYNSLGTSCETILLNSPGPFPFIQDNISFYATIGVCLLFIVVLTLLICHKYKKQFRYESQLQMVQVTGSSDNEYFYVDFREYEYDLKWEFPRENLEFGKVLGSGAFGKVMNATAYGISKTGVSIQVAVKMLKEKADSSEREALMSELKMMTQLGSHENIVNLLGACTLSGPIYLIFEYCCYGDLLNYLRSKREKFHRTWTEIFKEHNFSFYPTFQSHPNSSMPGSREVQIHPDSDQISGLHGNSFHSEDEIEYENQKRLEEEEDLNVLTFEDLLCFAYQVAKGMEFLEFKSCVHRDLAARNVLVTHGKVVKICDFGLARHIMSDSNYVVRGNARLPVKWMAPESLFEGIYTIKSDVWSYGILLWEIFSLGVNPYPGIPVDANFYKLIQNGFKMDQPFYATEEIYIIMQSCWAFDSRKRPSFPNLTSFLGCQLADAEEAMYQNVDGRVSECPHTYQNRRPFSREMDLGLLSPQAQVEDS

[17] = tested on: K562; experiment: Growth inhibition of human K562 cells after 48 hrs by sulforhodamine B assay; type: functional; settings: K562, 48 h
[18] = tested on: HOP-92; experiment: Cytotoxicity against human HOP92 cells after 48 hrs by sulforhodamine B assay; type: cell-based; settings: hop-92, 48 h
[19] = tested on: NCI-H322M; experiment: Cytotoxicity against human NCI-H322M cells after 48 hrs by sulforhodamine B assay; type: cell-based
[20] = tested on: PC-3; experiment: Cytotoxicity against human PC3 cells after 48 hrs by sulforhodamine B assay; type: cell-based; settings: pc-3, 48 h
[21] = tested on: KM12; experiment: Cytotoxicity against human KM12 cells after 48 hrs by sulforhodamine B assay; type: cell-based; settings: km12, 48 h
[22] = tested on: SK-MEL-2; experiment: Growth inhibition of human SK-MEL-2 cells after 48 hrs by sulforhodamine B assay; type: functional; settings: SK-MEL-2, 48 h
[23] = tested on: SF-539; experiment: Growth inhibition of human SF539 cells after 48 hrs by sulforhodamine B assay; type: functional; settings: SF-539, 48 h
[24] = tested on: UACC-257; experiment: Cytotoxicity against human UACC257 cells after 48 hrs by sulforhodamine B assay; type: cell-based; settings: uacc-257, 48 h
[25] = tested on: HT-29; experiment: Cytotoxicity against human HT-29 cells after 48 hrs by sulforhodamine B assay; type: cell-based; settings: ht-29, 48 h
[26] = biological target: Casein kinase I isoform delta (Homo sapiens) (UniProt P48730); experiment: Binding affinity to human CSNK1D at 10 uM incubated for 1 hr by kinase binding assay relative to untreated control
[27] = biological target: Receptor-type tyrosine-protein kinase FLT3 (Homo sapiens) (UniProt P36888); experiment: Binding affinity to human FLT3 at 10 uM incubated for 1 hr by kinase binding assay relative to untreated control
[28] = tested on: A498; experiment: Growth inhibition of human A498 cells after 48 hrs by sulforhodamine B assay; type: functional; settings: A498, 48 h
[29] = tested on: HOP-62; experiment: Growth inhibition of human HOP62 cells after 48 hrs by sulforhodamine B assay; type: functional; settings: HOP-62, 48 h
[30] = tested on: M14; experiment: Cytotoxicity against human M14 cells after 48 hrs by sulforhodamine B assay; type: cell-based; settings: m14, 48 h
[31] = tested on: K562; experiment: Cytotoxicity against human K562 cells after 48 hrs by sulforhodamine B assay; type: cell-based; settings: k562, 48 h
[32] = tested on: SK-MEL-2; experiment: Cytotoxicity against human SK-MEL-2 cells after 48 hrs by sulforhodamine B assay; type: cell-based; settings: sk-mel-2, 48 h

Epithelial discoidin domain-containing receptor 1 (Homo sapiens), sequence (Q08345 whole entry, the tested form may be a part): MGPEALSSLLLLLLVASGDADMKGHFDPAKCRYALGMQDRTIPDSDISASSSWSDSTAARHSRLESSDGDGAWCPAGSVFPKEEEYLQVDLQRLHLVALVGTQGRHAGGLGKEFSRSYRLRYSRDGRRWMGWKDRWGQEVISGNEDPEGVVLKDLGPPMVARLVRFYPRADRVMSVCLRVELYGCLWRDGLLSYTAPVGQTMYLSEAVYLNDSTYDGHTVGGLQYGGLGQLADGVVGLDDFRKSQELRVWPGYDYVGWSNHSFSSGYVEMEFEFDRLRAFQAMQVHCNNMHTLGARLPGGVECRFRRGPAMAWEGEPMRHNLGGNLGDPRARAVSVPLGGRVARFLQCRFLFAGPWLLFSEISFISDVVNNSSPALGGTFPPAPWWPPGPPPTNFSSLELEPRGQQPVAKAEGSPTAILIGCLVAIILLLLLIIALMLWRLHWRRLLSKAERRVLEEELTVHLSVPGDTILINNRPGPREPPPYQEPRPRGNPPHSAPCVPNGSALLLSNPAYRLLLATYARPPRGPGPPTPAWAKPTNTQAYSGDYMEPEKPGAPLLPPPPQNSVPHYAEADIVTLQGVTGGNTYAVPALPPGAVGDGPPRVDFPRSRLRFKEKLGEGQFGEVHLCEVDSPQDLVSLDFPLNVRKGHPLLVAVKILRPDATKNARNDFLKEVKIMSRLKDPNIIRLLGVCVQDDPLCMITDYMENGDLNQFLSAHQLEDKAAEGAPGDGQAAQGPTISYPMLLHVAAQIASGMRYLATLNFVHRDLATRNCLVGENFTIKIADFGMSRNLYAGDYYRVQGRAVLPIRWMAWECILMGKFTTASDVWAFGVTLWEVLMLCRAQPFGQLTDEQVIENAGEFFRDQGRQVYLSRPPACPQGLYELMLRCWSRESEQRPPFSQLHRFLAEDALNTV
Casein kinase I isoform delta (Homo sapiens), sequence (P48730 whole entry, looked up, canonical isoform): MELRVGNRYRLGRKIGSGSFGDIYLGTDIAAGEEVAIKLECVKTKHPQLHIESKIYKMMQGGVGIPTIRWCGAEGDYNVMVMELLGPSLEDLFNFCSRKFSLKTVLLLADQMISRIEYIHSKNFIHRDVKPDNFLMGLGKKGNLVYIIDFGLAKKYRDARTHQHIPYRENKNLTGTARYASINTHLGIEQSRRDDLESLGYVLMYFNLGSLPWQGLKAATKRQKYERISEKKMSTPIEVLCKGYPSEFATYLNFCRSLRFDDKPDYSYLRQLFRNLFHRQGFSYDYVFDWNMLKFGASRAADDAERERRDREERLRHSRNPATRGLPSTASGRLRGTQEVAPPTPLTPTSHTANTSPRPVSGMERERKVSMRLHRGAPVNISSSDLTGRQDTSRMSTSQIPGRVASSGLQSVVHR
Hepatocyte growth factor receptor, sequence (P08581 whole entry, canonical isoform): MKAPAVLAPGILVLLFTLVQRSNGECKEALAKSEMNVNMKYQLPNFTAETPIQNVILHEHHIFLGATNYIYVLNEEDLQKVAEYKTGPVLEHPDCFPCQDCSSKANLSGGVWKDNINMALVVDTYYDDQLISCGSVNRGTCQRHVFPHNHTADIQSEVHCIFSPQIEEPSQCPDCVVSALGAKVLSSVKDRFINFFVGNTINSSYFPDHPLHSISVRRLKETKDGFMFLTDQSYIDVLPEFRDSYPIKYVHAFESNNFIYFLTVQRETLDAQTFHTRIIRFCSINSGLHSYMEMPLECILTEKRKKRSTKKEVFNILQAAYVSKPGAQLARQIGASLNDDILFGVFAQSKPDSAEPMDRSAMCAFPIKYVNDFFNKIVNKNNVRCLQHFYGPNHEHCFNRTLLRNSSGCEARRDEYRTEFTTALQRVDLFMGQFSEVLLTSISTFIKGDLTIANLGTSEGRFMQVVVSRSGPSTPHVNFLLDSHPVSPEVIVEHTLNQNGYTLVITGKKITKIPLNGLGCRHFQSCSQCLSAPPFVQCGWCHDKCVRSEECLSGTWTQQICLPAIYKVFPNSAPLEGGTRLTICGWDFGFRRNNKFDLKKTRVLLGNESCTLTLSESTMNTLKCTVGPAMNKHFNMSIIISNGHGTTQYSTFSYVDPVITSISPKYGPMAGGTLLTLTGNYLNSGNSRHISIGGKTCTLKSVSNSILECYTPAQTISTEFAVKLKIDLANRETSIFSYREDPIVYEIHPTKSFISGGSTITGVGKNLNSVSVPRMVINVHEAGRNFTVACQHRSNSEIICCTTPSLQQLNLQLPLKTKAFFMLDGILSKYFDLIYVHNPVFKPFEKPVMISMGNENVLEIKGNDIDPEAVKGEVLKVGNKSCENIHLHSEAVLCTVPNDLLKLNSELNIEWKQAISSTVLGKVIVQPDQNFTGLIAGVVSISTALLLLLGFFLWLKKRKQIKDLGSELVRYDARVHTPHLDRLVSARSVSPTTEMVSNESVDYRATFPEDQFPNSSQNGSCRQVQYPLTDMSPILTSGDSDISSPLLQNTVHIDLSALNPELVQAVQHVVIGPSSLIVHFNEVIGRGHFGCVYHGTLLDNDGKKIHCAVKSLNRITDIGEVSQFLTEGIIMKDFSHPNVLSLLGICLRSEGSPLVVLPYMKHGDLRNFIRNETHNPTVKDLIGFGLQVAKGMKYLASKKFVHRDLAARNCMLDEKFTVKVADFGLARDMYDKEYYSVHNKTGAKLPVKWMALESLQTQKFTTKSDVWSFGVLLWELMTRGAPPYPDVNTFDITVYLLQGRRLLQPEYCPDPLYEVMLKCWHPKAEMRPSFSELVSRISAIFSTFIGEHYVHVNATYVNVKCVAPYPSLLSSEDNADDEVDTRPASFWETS
Platelet-derived growth factor receptor alpha (Homo sapiens), P16234 [V561D], sequence (P16234 whole entry V561D): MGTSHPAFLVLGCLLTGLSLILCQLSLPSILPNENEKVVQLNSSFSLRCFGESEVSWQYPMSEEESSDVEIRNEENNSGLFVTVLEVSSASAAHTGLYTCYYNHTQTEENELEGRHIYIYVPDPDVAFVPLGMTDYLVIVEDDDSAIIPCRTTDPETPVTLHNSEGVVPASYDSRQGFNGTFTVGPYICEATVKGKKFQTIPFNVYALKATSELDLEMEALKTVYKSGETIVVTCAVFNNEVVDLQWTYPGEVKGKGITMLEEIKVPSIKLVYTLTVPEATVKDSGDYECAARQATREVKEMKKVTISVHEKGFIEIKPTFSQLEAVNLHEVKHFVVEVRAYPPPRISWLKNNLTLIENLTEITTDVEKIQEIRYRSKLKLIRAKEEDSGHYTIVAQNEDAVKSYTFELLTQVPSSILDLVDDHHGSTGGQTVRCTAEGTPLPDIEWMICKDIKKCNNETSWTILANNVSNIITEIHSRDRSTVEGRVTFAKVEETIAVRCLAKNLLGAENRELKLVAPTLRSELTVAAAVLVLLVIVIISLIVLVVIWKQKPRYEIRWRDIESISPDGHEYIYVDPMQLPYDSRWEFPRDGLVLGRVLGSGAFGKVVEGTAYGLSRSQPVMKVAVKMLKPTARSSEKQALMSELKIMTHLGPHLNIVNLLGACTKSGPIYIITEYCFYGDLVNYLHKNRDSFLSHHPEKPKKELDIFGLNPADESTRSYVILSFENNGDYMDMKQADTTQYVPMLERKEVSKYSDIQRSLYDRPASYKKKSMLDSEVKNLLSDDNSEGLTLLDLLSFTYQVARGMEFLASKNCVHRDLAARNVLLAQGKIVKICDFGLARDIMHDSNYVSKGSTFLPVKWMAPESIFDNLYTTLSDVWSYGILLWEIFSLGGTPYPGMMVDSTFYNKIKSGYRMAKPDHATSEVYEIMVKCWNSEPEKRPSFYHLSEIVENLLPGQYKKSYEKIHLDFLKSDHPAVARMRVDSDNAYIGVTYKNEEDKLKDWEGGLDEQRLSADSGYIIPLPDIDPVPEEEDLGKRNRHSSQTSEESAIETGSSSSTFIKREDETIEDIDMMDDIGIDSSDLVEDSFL
Casein kinase I isoform gamma-3 (Homo sapiens), sequence (Q9Y6M4 whole entry, looked up, canonical isoform): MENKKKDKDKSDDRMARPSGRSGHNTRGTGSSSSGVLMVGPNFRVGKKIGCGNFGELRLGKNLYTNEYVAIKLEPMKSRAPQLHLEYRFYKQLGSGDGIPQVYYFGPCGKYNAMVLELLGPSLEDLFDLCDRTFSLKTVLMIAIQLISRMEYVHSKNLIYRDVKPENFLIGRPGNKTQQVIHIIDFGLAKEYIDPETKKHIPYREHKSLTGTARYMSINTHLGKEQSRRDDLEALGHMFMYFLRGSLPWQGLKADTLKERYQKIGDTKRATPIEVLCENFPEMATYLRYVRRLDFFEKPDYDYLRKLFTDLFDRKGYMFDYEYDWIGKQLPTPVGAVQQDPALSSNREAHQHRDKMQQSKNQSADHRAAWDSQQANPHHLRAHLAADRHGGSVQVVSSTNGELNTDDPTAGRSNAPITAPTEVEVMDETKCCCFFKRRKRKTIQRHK

SMILES	LC50 [1] [µM]	LC50 [2] [µM]	TGI [3] [µM]	Activity [4] [%]	LC50 [5] [µM]	TGI [6] [µM]	LC50 [7] [µM]	Activity [8] [%]	LC50 [9] [µM]	LC50 [10] [µM]	TGI [11] [µM]	LC50 [12] [µM]	TGI [13] [µM]	Activity [14] [%]	Activity [15] [%]	Activity [16] [%]	TGI [17] [µM]	LC50 [18] [µM]	LC50 [19] [µM]	LC50 [20] [µM]	other results
c1ccc(Cc2cnc(N3CCN(c4ncnc5ccccc45)CC3)nc2)cc1	43	> 100	23.7	20	> 100	23.2	97.3	47	36.4	> 100	40.3	> 100	27.7	75	> 50	46	> 100	62	> 100	> 100	LC50 [21]: 50.1 µM; TGI [22]: 35.8 µM; TGI [23]: 28.5 µM; LC50 [24]: 41.4 µM; LC50 [25]: 79.2 µM; Activity [26]: 26%; Activity [27]: 8.4%; TGI [28]: 24.2 µM; TGI [29]: 51.6 µM; LC50 [30]: 51.6 µM; LC50 [31]: > 100 µM; LC50 [32]: 70.3 µM
CCc1cnc(N2CCN(C(=O)c3ccc(CNc4ncnc5ccccc45)cc3)CC2)nc1	> 100	> 100	30.7	100	> 100	> 100	> 100	> 50	> 100	> 100	55.4	> 100	45.1	100	24	> 50	> 100	> 100	> 100	> 100	LC50 [21]: 53.8 µM; TGI [22]: > 100 µM; TGI [23]: > 100 µM; LC50 [24]: > 100 µM; LC50 [25]: > 100 µM; Activity [26]: 23%; Activity [27]: > 50%; TGI [28]: > 100 µM; TGI [29]: > 100 µM; LC50 [30]: 93.7 µM; LC50 [31]: > 100 µM; LC50 [32]: > 100 µM
O=C(c1cccc(Nc2ncnc3ccccc23)c1)N1CCN(c2ncc(Cc3ccccc3)cn2)CC1	5.37	> 100	4.27	100	6.76	8.13	3.89	28	> 100	5.62	2.09	5.5	4.27	100	> 50	> 50	2.23	> 100	> 100	> 100	LC50 [21]: 6.61 µM; TGI [22]: 2.69 µM; TGI [23]: 4.9 µM; LC50 [24]: 5.37 µM; LC50 [25]: > 100 µM; Activity [26]: 22%; Activity [27]: > 50%; TGI [28]: 5.37 µM; TGI [29]: 3.47 µM; LC50 [30]: 4.68 µM; LC50 [31]: > 100 µM; LC50 [32]: 5.89 µM
